Activity calls are given as the source filed them. No cut-off for these calls is given here.
Assays:
Type in all cases: functional, cell-based
SK-BR-3 [1] = test: Inhibition of [DEDTC]2-Cu-induced cytotoxicity against human SK-BR-3 cells at 50 uM
C8161 [2] = test: Inhibition of [DEDTC]2-Cu-induced cytotoxicity against human C8161 cells at 50 uM
SK-BR-3 [3] = test: Inhibition of [DEDTC]2-Cu-induced apoptosis in human SK-BR-3 cells assessed as PARP-cleavage at 50 uM
C8161 [4] = test: Inhibition of [DEDTC]2-Cu-induced iNOS-down regulation human C8161 cells

Row | SMILES | Activity (SK-BR-3 [1]) | Activity (C8161 [2]) | Activity (SK-BR-3 [3]) | Activity (C8161 [4])
1 | CC(=O)N[C@@H](C(=O)O)C(C)(C)SN=O | Active | Active | Active | Active
2 | NCCN(CCN)N(O)N=O | – | Active | – | –

Reference: ChEMBL document CHEMBL1154910, “Nitric oxide donors or nitrite counteract copper-[dithiocarbamate](2)-mediated tumor cell death and inducible nitric oxide synthase down-regulation: possible role of a nitrosyl-copper [dithiocarbamate](2) complex” (J Med Chem, 2010)
